From ChEMBL document CHEMBL4400574, “Chemical synthesis and biological activity of novel brominated 7-deazaadenosine-3',5'-cyclic monophosphate derivatives” (Bioorg Med Chem, 2019)

Tests used:
CNGA2/CNGA4/CNGB1 = CNGA2/CNGA4/CNGB1 (Rattus norvegicus, UniProt O35788+Q00195+Q64359); assay: Activation of recombinant rat CNGA2/CNGA4/CNGB1b heterotetramer expressed in Xenopus laevis oocyte assessed as increase in current amplitude by patch-clamp electrophysiology method
[1] = target: T1, Cyclic nucleotide-gated channel alpha-2 (Rattus norvegicus, UniProt Q00195); assay: Activation of recombinant rat CNGA2 expressed in Xenopus laevis oocyte assessed as increase in current amplitude by patch-clamp electrophysiology method
T1 sequence (Q00195 whole entry): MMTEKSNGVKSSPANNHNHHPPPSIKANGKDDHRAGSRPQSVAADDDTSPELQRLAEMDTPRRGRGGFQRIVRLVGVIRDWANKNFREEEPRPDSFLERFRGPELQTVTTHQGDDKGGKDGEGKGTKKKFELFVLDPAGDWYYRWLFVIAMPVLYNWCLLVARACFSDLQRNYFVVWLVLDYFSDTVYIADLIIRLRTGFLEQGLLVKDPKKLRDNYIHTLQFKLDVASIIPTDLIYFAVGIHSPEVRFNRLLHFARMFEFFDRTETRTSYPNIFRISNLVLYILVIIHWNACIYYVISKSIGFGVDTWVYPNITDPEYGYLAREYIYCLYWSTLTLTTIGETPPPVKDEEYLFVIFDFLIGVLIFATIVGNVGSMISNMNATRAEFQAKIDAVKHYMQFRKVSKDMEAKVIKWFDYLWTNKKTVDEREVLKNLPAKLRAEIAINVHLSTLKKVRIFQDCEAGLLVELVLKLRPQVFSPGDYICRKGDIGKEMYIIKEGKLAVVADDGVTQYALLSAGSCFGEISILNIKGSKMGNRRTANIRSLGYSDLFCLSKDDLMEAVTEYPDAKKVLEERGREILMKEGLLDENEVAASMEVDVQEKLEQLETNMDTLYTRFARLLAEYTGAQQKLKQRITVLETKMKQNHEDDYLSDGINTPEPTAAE

[2] = target: T2, Rap guanine nucleotide exchange factor 3 (Homo sapiens, UniProt O95398); assay: Inhibition of 8Fluo-cAMP binding to recombinant human His-tagged EPAC1 (157 to 881 residues) expressed in Escherichia coli measured after 5 mins by fluorescence polarization assay
T2 sequence (O95398 whole entry): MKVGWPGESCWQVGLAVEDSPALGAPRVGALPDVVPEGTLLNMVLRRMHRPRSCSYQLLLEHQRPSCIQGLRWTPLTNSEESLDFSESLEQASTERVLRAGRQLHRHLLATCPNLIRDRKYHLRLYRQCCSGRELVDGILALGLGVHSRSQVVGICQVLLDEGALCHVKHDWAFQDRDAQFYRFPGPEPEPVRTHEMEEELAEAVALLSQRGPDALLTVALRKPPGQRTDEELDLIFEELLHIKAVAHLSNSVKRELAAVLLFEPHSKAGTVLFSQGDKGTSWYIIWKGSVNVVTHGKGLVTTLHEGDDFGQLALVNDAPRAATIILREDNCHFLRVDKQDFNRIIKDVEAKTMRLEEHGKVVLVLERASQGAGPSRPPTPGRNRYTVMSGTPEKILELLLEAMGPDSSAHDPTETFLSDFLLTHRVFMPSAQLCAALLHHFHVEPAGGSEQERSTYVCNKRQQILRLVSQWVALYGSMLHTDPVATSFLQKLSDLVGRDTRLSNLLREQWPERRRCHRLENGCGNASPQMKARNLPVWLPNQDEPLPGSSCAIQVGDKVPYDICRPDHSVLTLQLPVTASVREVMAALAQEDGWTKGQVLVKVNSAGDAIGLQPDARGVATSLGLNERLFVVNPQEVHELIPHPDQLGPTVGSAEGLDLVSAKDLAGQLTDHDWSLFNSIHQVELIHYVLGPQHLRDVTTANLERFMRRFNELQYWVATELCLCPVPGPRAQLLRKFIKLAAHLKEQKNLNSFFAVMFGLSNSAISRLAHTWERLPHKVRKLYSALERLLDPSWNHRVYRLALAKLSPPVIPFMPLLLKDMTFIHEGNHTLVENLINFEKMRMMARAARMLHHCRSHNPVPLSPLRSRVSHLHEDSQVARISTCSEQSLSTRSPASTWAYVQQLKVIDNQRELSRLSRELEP

[3] = target: cAMP-dependent protein kinase type I-alpha regulatory subunit (Homo sapiens) (UniProt P10644)
Description: Activation of recombinant human PKAR1alpha expressed in Escherichia coli using Kemptide as substrate by spectrophotometric method

[4] = target: cAMP-dependent protein kinase type II-alpha regulatory subunit (Homo sapiens) (UniProt P13861)
Description: Activation of recombinant human PKAR2alpha expressed in Escherichia coli using Kemptide as substrate by spectrophotometric method

[5] = target: T3, Rap guanine nucleotide exchange factor 4 (Mus musculus, UniProt Q9EQZ6); assay: Inhibition of 8Fluo-cAMP binding to DEP domain deficient mouse EPAC2 (280 to 998 residues) measured after 5 mins by fluorescence polarization assay
T3 sequence (Q9EQZ6 whole entry): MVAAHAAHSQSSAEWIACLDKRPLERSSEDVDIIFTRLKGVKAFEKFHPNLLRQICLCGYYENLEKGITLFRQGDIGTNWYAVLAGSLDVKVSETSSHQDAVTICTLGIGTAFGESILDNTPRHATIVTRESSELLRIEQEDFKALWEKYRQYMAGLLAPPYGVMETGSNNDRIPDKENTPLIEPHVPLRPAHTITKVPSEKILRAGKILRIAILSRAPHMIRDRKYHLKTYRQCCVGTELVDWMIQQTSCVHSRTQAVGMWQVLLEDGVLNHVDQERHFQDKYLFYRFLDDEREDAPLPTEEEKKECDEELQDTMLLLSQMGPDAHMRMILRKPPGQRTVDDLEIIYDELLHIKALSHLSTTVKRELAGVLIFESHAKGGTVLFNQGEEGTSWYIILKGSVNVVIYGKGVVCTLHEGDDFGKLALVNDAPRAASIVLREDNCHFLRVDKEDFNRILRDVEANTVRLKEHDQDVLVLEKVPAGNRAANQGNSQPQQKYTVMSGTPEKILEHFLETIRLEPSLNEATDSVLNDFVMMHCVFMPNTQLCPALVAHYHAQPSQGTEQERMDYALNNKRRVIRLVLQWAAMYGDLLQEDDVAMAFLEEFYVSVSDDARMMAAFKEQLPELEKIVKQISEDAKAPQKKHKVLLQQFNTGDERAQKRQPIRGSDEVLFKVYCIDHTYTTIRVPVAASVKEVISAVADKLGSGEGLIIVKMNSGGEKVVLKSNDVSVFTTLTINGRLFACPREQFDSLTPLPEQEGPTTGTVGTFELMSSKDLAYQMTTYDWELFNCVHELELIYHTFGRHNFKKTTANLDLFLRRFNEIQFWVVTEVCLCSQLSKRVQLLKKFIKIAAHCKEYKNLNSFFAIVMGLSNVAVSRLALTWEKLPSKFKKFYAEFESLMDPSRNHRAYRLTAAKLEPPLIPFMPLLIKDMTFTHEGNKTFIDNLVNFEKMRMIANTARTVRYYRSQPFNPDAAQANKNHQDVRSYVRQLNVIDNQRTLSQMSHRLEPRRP

[6] = target: T4, Potassium/sodium hyperpolarization-activated cyclic nucleotide-gated channel 2 (Mus musculus, UniProt O88703); assay: Activation of recombinant mouse HCN2 expressed in Xenopus laevis oocyte assessed as increase in current amplitude at -30 mV holding potential by patch-clamp electrophysiology method
T4 sequence (O88703 whole entry): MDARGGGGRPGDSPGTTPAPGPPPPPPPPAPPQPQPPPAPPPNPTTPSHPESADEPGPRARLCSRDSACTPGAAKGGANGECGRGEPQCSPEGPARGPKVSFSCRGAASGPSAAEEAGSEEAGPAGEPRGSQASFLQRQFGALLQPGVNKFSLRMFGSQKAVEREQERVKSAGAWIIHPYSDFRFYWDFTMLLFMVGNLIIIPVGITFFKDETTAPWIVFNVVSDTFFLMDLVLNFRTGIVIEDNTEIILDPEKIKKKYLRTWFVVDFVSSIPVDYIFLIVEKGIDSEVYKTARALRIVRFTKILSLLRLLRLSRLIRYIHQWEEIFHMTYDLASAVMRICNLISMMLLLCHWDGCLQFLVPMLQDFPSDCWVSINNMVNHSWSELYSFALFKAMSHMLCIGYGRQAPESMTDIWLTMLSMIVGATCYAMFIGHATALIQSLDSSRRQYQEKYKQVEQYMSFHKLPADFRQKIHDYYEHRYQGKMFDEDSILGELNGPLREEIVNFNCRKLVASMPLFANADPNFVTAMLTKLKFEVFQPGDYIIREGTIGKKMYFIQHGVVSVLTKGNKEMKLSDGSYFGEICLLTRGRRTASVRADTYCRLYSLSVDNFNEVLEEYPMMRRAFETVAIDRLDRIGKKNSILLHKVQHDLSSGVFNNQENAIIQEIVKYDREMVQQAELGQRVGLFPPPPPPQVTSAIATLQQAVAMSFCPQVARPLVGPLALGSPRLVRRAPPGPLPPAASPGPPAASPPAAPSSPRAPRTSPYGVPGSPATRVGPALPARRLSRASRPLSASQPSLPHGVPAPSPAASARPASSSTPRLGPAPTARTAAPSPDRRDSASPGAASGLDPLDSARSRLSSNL

CNGA2/CNGA4/CNGB1, sequence (Q64359 whole entry, one chain of several): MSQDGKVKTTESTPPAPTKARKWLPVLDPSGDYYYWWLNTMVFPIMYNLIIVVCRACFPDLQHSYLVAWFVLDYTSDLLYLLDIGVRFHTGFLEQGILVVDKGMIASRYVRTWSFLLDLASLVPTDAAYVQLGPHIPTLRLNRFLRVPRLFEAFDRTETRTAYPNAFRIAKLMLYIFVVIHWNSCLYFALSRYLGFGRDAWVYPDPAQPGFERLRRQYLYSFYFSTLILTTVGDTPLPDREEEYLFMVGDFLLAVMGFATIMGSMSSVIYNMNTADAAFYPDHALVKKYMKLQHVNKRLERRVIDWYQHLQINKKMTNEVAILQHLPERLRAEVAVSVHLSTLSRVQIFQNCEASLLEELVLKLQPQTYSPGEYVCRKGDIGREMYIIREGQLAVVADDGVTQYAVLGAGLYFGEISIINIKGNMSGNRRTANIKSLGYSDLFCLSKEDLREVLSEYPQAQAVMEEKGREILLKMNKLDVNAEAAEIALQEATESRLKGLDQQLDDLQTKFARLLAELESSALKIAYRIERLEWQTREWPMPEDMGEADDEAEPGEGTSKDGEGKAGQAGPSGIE
CNGA2/CNGA4/CNGB1, sequence (O35788 whole entry, one chain of several): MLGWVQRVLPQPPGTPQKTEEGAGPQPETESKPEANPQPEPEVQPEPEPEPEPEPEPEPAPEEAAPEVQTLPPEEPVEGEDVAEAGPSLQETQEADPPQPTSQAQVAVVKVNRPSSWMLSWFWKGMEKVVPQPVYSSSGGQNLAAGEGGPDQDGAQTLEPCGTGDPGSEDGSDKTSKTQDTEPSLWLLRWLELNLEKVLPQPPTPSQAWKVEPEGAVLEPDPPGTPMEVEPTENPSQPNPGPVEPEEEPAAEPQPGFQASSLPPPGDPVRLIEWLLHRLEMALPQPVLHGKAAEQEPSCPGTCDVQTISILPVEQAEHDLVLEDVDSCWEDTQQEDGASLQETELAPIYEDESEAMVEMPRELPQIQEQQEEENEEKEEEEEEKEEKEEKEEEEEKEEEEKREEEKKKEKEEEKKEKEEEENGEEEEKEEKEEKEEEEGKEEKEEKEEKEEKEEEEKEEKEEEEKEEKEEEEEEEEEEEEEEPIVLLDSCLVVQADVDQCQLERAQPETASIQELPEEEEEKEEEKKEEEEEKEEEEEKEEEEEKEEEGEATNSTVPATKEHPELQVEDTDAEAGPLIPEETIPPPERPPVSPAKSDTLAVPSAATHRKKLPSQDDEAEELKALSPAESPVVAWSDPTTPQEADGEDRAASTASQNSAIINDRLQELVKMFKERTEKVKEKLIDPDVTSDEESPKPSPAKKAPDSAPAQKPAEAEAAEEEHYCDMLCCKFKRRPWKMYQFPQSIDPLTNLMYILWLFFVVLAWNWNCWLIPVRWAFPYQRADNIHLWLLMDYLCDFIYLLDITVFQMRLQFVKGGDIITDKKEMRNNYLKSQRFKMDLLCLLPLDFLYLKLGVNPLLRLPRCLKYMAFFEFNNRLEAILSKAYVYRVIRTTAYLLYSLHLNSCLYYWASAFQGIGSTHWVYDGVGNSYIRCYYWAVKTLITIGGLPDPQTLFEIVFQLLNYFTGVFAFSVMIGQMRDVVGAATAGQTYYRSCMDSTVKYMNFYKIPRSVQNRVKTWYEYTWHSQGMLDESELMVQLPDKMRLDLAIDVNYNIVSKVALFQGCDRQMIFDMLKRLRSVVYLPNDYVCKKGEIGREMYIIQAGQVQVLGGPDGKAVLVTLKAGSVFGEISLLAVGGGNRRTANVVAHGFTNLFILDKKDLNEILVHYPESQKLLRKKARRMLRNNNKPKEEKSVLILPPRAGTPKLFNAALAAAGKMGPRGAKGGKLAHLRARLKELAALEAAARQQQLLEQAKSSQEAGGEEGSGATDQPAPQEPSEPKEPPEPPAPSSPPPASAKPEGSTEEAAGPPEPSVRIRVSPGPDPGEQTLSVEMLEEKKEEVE
cAMP-dependent protein kinase type I-alpha regulatory subunit (Homo sapiens), sequence (P10644 whole entry): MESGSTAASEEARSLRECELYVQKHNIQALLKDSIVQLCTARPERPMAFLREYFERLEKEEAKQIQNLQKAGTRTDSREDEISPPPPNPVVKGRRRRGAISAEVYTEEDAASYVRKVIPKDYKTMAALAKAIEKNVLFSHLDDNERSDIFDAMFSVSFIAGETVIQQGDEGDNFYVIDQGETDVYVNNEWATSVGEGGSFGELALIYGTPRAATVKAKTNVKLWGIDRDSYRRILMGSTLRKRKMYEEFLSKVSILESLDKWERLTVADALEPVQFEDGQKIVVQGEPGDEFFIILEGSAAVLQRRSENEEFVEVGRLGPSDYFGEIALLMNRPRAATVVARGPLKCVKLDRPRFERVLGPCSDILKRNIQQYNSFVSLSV
cAMP-dependent protein kinase type II-alpha regulatory subunit (Homo sapiens), sequence (P13861 whole entry, the tested form may be a part): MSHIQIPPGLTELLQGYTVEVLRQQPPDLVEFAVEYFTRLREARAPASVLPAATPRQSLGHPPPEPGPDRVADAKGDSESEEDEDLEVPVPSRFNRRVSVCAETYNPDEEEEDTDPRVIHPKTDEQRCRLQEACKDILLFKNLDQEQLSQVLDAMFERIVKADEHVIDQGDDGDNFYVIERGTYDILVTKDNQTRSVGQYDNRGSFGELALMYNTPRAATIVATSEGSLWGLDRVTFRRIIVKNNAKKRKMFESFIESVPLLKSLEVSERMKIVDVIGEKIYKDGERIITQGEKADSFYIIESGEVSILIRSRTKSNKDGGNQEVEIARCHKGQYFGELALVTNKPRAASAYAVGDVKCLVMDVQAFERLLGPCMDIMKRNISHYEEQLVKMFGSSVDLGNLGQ

Row | EC50 (CNGA2/CNGA4/CNGB1) [nM] | EC50 [1] [nM] | EC50 [2] [nM] | Kact [3] [µM] | Kact [4] [µM] | EC50 [5] [nM] | EC50 [6] [nM] | SMILES
1 | 1600 | 15400 | 1090 | 0.056 | 0.088 | 780 | – | Nc1ncnc2c1nc(Br)n2[C@@H]1O[C@@H]2COP(=O)(O)O[C@H]2[C@H]1O
2 | 360 | 2080 | 2750 | 0.199 | 0.238 | 2060 | 15 | Nc1ncnc2c1ccn2[C@@H]1O[C@@H]2COP(=O)(O)O[C@H]2[C@H]1O
3 | 630 | 6400 | 530 | 0.043 | 0.072 | 300 | – | Nc1ncnc2c1cc(Br)n2[C@@H]1O[C@@H]2COP(=O)(O)O[C@H]2[C@H]1O

Row | SMILES | EC50 (CNGA2/CNGA4/CNGB1) [nM] | EC50 [1] [nM] | EC50 [2] [nM] | Kact [3] [µM] | Kact [4] [µM] | EC50 [5] [nM] | EC50 [6] [nM]
4 | Nc1ncnc2c1c(Br)cn2[C@@H]1O[C@@H]2COP(=O)(O)O[C@H]2[C@H]1O | 120 | 540 | 2540 | 0.028 | 0.097 | 2360 | –
